The values that follow are results of earlier work, collected in patent US20080076825A1, “Novel Crystalline Forms of Entacapone and Production Thereof” (priority 2003, published 2008).

A word on the bioavailability: it is dose-corrected exposure relative to a reference, in per cent.

One data set concerns Parkinson's disease. Particulars: in combination with levodopa and a decarboxylase inhibitor; by lengthening the dosage interval and/or reducing the single dose.
The conditions of data set [1]: commercially available entacapone.

`CCN(CC)C(=O)/C(C#N)=C/c1cc(O)c(O)c([N+](=O)[O-])c1` [entacapone, (E)-N,N-diethyl-2-cyano-3-(3,4-dihydroxy-5-nitrophenyl)acrylamide]: the “reduction of the amount of L-dopa to be administered” value in the data set on Parkinson's disease is recorded as 10-30%. Moreover, the bioavailability in data set [1] is 35%.
